Laboratory results as given in patent US20250188030A1, “Biphenyl and Phenylpyridine Compounds” (Pfizer Inc., priority 2023, published 2025).
Read-outs that look alike come from different tables or passages of the source.

Legend:
H3K9AC (HT1080 cells) = assay: H3K9AC Sandwich ELISA Assay in HT1080 cells (KAT2A primary cell-based screening assay); set-up: species or system Human
Summary of the method: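 HT1080 fibrosarcoma cells seeded 16 h, then treated 24 h at 37 °C with 10-point 1:3 compound dilutions (top 10 µM final, 0.1% DMSO). Acid lysates neutralized with butyrate/PMSF; H3K9ac measured by total-H3-capture sandwich ELISA with luminescent HRP readout, IC50 by four-parameter fit.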

KAT2A = KAT2A (Homo sapiens (Human), UniProt Q92830); assay: KAT2A acetyltransferase biochemical assay (RapidFire mass spectrometry, AcCoA to CoA)
Procedure: • A) Compound preparation • 1) Prepare 10 mM stock solutions in 100% DMSO from solid material. • 2) Serial dilute 10 mM, 1 mM, 0.1 or 0.01 mM compound stocks 3-fold in 100% DMSO for 11-point dose response. • B) Reagent preparation • 1) Prepare 1×assay buffer containing 40 mM bis tris propane pH 8.0, 10 mM NaCl, 0.5 mM EDTA, and 0.002% Tween-20. • 2) Dilute Histone peptide (CPC Scientific) and KAT enzyme together in assay buffer to 1.25×. • 3) Dilute AcCoA (Sigma) in assay buffer to 5×. • C) Enzyme reaction • 1) Final reaction conditions for each KAT assay in a 100ul assay reaction volume: • i) KAT2A 0.5 nM, 1 uM AcCoA, 5 uM H3 1-21 peptide, 90-minute reaction • ii) KAT2B 0.5 nM, 1 uM AcCoA, 5 uM H3 1-21 peptide, 90-minute reaction • 2) Add 2 ul of diluted compound series to the assay plate (96-well round-bottom polypropylene plates) or 2 ul of DMSO for control wells. • 3) Add 11 μL of 10% formic acid to 100% effect (HPE) control wells. • 4) Add 80 ul of 1.25× Histone peptide/KAT mix to the assay plate via Multidrop Combi (ThermoFisher). Incubate 15 min at room temperature. • 5) Add 20 ul of 5× AcCoA to the assay plate via Multidrop Combi. • 6) Stop the reaction after the indicated time with the addition of 11 ul of 10% formic acid via Multidrop Combi. • 7) Each reaction was analyzed using Rapid Fire mass spectrometry platform.
KAT enzymes were expressed using a baculovirus expression system and purified at Pfizer, La Jolla. […] Acetyl coenzyme A was purchased from Sigma-Aldrich (St. Louis, MO). All other biochemical reagents were purchased from Sigma-Aldrich or ThermoFisher Scientific (Waltham, MA).
KAT assays were performed at room temperature in assay buffer containing 1 μM AcCoA, 5 μM histone peptide, 40 mM bis tris propane pH 8.0, 10 mM NaCl, 0.5 mM EDTA 0.002% Tween-20. 80 ul of 1.25× Histone peptide/enzyme mix was added to a 96-well round-bottom polypropylene assay plate containing 2 ul of serially diluted test compound in 100% dimethyl sulfoxide (DMSO). To start the reaction, 20 ul of 5× AcCoA solution was added to the assay plate. KAT assays were terminated after 90 minutes with the addition of 11 ul of 10% formic acid. All assays used histone H3 (1-21) peptide. The final enzyme concentration for each KAT was as follows: KAT2A, 0.5 nM; KAT2B, 0.5 nM. […] Each reaction was analyzed using Rapid Fire mass spectrometry platform. This methodology leverages an Agilent 6495 triple quadrupole (QQQ) mass spectrometer coupled to a RapidFire model 365 to specifically capture and measure KAT2 acetyltransferase activity, converting AcCoA (substrate) to CoA (product).
Area under the curve (AUC) for both substrate and product peaks was determined for KAT2 at M.W. 809.6 [Substrate+H]+ and 767.3 [Product+H]+ with a +/−1 Da tolerance, respectively. Acetyltransferase activity (% of DMSO control) was calculated by: ((AUCProduct/AUCsubstrate)-AUCHPE)/(AUCZPE-AUCHPE))*100. Ki values were determined by fitting the % acetyltransferase activity at each inhibitor concentration to the Morrison equation for tightbinding competitive inhibitors using Pfizer proprietary curve fitting software.
To determine the inhibition of KAT enzymatic activity by test compounds, assay reactions were conducted in a volume of 100 μL in 96-well round-bottom polypropylene assay plate. The reactions were performed in assay buffer (40 mM bis tris propane, pH 8, 10 mM NaCl, 0.5 mM EDTA, 0.002% Tween-20).

MM.1S cells = assay: MM1.S 10 Day Proliferation Assay (CellTiter-Glo); format: cell-based, Human
Summary of the method: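 MM.1S cells, 500/well in ultra-low-attachment plates, were pre-incubated 16 h, then exposed to a 10-point 1:3 dilution series (top 10 μM final, 0.1% DMSO) for 10 days at 37 °C, with compound-containing medium refreshed at day 5. Viability was read by CellTiter-Glo luminescence; IC50 came from four-parameter fit.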

[1] = read-out: KAT2A Ki at 1 μM AcCoA, 5 μM H3 1-21 peptide, 0.5 nM KAT2A, 90-minute reaction
[2] = Homo sapiens, HT-1080, H3K9AC sandwich ELISA
[3] = KAT2A Ki at 1 μM AcCoA, 5 μM H3 1-21 peptide, 0.5 nM KAT2A, 90-minute reaction

Sequence of KAT2A (Q92830 whole entry): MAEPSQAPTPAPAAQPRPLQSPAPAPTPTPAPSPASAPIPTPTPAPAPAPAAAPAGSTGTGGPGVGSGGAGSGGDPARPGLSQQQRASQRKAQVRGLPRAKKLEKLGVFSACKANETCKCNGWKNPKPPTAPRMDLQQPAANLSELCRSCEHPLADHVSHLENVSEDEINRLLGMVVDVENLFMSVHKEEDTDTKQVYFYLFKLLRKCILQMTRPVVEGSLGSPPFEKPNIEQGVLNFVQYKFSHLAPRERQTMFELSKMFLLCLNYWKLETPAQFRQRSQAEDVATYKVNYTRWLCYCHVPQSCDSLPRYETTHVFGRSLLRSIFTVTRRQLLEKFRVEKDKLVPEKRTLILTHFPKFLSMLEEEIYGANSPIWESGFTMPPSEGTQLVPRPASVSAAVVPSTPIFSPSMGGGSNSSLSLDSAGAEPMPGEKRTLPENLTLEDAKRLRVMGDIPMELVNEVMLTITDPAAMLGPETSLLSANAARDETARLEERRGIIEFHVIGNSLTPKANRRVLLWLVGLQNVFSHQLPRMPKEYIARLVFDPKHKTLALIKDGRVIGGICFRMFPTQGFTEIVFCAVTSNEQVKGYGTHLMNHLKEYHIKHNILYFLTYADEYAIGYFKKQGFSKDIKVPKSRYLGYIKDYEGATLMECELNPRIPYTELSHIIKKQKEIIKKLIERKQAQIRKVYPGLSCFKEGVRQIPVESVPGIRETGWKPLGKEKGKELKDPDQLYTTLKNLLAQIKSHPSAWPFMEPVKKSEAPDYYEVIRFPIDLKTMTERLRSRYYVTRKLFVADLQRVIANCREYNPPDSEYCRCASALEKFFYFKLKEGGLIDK

Row | Structure (SMILES) | IC50 (H3K9AC (HT1080 cells); H3K9AC sandwich ELISA) [nM] | Ki (KAT2A; [1]) [nM] | IC50 (MM.1S cells) [nM] | IC50 (H3K9AC (HT1080 cells); [2]) [nM] | IC50 (MM.1S cells; Homo sapiens, MM1.S, 240 h) [nM] | Ki (KAT2A; [3]) [nM]
1 | CC(C)(C(=O)NS(=O)(=O)C1(C)CC1)c1ccc(O[C@@H]2CC[C@@H](NC(=O)[C@@]3(F)CNC4(CCC4)C3)C2)c(-c2cccc(F)c2C2CC2)c1 (single isomer, unassigned) [Example C22] | 4.49 | 0.14 | 7.8 |  |  | 
2 | O=C(Cc1ccc(O[C@@H]2CC[C@@H](NC(=O)[C@@]3(F)CNC4(CCC4)C3)C2)c(-c2cccc(F)c2C2CCC2)c1)NS(=O)(=O)C1CC1 (single isomer, unassigned) [Example C31] |  | 0.02 |  | 1.78 | 2.85 | 
3 | CC1(C)CNC[C@](F)(C(=O)N[C@@H]2CC[C@@H](Oc3ccc(C(C)(C)C(=O)NS(=O)(=O)C4(C)CC4)cc3-c3cccc(F)c3C3CCC3)C2)C1 (single isomer, unassigned) [Example C35] |  | 0.14 |  | 3.5 | 7.8 | 
4 | CC1(C)CNC[C@](F)(C(=O)N[C@@H]2CC[C@@H](Oc3ccc(C(C)(C)C(=O)NS(C)(=O)=O)cc3-c3cccc(F)c3C3CCC3)C2)C1 (single isomer, unassigned) [Example C37] |  | 0.06 |  | 3 | 11 | 
5 | CS(=O)(=O)NC(=O)Cc1ccc(O[C@@H]2CC[C@@H](NC(=O)[C@]3(F)CNC4(CCC4)C3)C2)c(-c2cccc(F)c2C2CCC2)c1 (single isomer, unassigned) [Example C38] |  |  |  | 6.1 | 10.2 | 0.09
6 | CC(C)c1c(F)cccc1-c1cc(C(C)(C)C(=O)NS(=O)(=O)C2(C)CC2)ccc1O[C@@H]1CC[C@@H](NC(=O)[C@@]2(F)CNC3(CCC3)C2)C1 (single isomer, unassigned) [Example C43] |  | 0.06 |  | 2.8 | 4.2 | 
7 | CCc1c(F)cccc1-c1cc(C(C)(C)C(=O)NS(=O)(=O)C(C)C)ccc1O[C@@H]1CC[C@@H](NC(=O)[C@@]2(F)CNCC(C)(C)C2)C1 (single isomer, unassigned) [Example C45] | 9.6 | 0.11 |  |  | 52.4 | 
8 | CC(C)S(=O)(=O)NC(=O)C(C)(C)c1ccc(O[C@@H]2CC[C@@H](NC(=O)[C@@]3(F)CNC4(CCC4)C3)C2)c(-c2ccccc2C2CCC2)c1 (single isomer, unassigned) [Example C48] |  | 0.21 |  | 4.7 | 18.9 | 
9 | CCc1c(F)cccc1-c1cc(CC(=O)NS(=O)(=O)C2(C)CC2)ccc1O[C@@H]1CC[C@@H](NC(=O)[C@@]2(F)CNC3(CCCC3)C2)C1 (single isomer, unassigned) [Example C50] |  | 0.19 |  | 0.6 | 1.4 | 
10 | CCc1c(F)cccc1-c1cc(CC(=O)NS(=O)(=O)C2(C)CC2)ccc1O[C@@H]1CC[C@@H](NC(=O)[C@@]2(F)CNCC(C)(C)C2)C1 (single isomer, unassigned) [Example C57] | 4.1 | 0.05 |  |  | 7.6 | 
11 | CCS(=O)(=O)NC(=O)Cc1ccc(O[C@@H]2CC[C@@H](NC(=O)C3(F)CNCC4(CCC4)C3)C2)c(-c2cccc(F)c2C2CCC2)c1 (single isomer, unassigned) [Example C60] | 3.2 | 0.04 |  |  | 5 | 
12 | CC(C)c1ccccc1-c1cc(CC(=O)NS(=O)(=O)C2(C)CC2)ccc1O[C@@H]1CC[C@@H](NC(=O)[C@@]2(F)CNC3(CCCC3)C2)C1 (single isomer, unassigned) [Example C61] |  | 0.07 |  | 0.2 | 0.7 | 
13 | CC(C)c1c(F)cccc1-c1cc(CC(=O)O)ccc1O[C@@H]1CC[C@@H](NC(=O)[C@@]2(F)CNC3(CCC3)C2)C1 [Example A32, [3′-fluoro-6-{[(1R,3R)-3-{[(7S)-7-fluoro-5-azaspiro[3.4]octane-7-carbonyl]amino}cyclopentyl]oxy}-2′-(propan-2-yl)[1,1′-biphenyl]-3-yl]acetic acid] |  | 0.84 |  | 4.5 | 31.3 | 
14 | CC(C)c1ccccc1-c1cc(C(=O)O)ccc1O[C@@H]1CC[C@@H](NC(=O)[C@@]2(F)CNC3(CCC3)C2)C1 [Example A39, 6-{[(1R,3R)-3-{[(7S)-7-fluoro-5-azaspiro[3.4]octane-7-carbonyl]amino}cyclopentyl]oxy}-2′-(propan-2-yl)[1,1′-biphenyl]-3-carboxylic acid] |  | 0.35 |  | 6.4 | 29.7 | 
15 | CC1(S(=O)(=O)NC(=O)Cc2ccc(O[C@@H]3CC[C@@H](NC(=O)[C@@]4(F)CNC5(CCC5)C4)C3)c(-c3cccc(F)c3C3CCC3)c2)CC1 [Example B35, (7ξ)-N-[(1R,3R)-3-({2′-cyclobutyl-3′-fluoro-5-[2-(1-methylcyclopropane-1-sulfonamido)-2-oxoethyl][1,1′-biphenyl]-2-yl}oxy)cyclopentyl]-7-fluoro-5-azaspiro[3.4]octane-7-carboxamide] |  | 0.04 |  | 0.6 | 1.3 | 
16 | CC(C)(C(=O)NS(C)(=O)=O)c1ccc(O[C@@H]2CC[C@@H](NC(=O)[C@@]3(F)CNC4(CCC4)C3)C2)c(-c2cccc(F)c2C2CCC2)c1 [Example C1, (7S)—N-{(1R,3R)-3-[(2′-cyclobutyl-3′-fluoro-5-{1-[(methanesulfonyl)amino]-2-methyl-1-oxopropan-2-yl}[1,1′-biphenyl]-2-yl)oxy]cyclopentyl}-7-fluoro-5-azaspiro[3.4]octane-7-carboxamide] |  | 0.43 |  | 18 | 36.8 | 

Next, values leading:

Row | IC50 (H3K9AC (HT1080 cells); H3K9AC sandwich ELISA) [nM] | Ki (KAT2A; [1]) [nM] | IC50 (MM.1S cells) [nM] | IC50 (H3K9AC (HT1080 cells); [2]) [nM] | IC50 (MM.1S cells; Homo sapiens, MM1.S, 240 h) [nM] | Ki (KAT2A; [3]) [nM] | Structure (SMILES)
17 |  | 0.08 |  | 2.2 | 5.2 |  | CCS(=O)(=O)NC(=O)Cc1ccc(O[C@@H]2CC[C@@H](NC(=O)[C@@]3(F)CNC4(CCCC4)C3)C2)c(-c2ccccc2C(C)C)c1 (single isomer, unassigned) [Example C63]
18 |  | 0.07 |  | 4.4 | 13.8 |  | CCc1c(F)cccc1-c1cc(CC(=O)NS(=O)(=O)C(C)C)ccc1O[C@@H]1CC[C@@H](NC(=O)[C@@]2(F)CNCC(C)(C)C2)C1 (single isomer, unassigned) [Example C67]
19 |  | 10.8 |  | 45 | 417 |  | C[C@@H](C(=O)O)c1ccc(O[C@@H]2CC[C@@H](NC(=O)[C@@H]3CC(C)(C)CN3C)C2)c(-c2cccc(F)c2C2CCC2)c1 (single isomer, unassigned) [Example D13]
20 |  | 8.31 |  | 25.9 | 171 |  | C[C@H](C(=O)O)c1ccc(O[C@@H]2CC[C@@H](NC(=O)[C@@H]3CC(C)(C)CN3C)C2)c(-c2cccc(F)c2C2CCC2)c1 (single isomer, unassigned) [Example D14]
21 |  |  | 16.4 | 4.76 |  | 0.29 | CC(C(=O)NS(C)(=O)=O)c1ccc(O[C@@H]2CC[C@@H](NC(=O)[C@@H]3CC(C)(C)CN3C)C2)c(-c2cccc(F)c2C2CCC2)c1 (single isomer, unassigned) [Example E8]
22 | 3.89 |  | 6.32 |  |  | 0.21 | CC(C(=O)NS(C)(=O)=O)c1ccc(O[C@@H]2CC[C@@H](NC(=O)[C@@H]3CC(C)(C)CN3C)C2)c(-c2cccc(F)c2C2CCC2)c1 (single isomer, unassigned) [Example E9]
23 |  | 2.48 |  | 8.5 | 94.5 |  | O=C(O)Cc1ccc(OC[C@H]2C[C@H](NC(=O)[C@@]3(F)CNC4(CCC4)C3)C2)c(-c2cccc(F)c2C2CCC2)c1 (single isomer, unassigned) [Example F3, (2′-cyclobutyl-3′-fluoro-6-{[(1r,3r)-3-{[(7ξ)-7-fluoro-5-azaspiro[3.4]octane-7-carbonyl]amino}cyclobutyl]methoxy}[1,1′-biphenyl]-3-yl)acetic acid]
24 |  | 0.17 |  | 9.5 | 36.2 |  | CCS(=O)(=O)NC(=O)C(C)(C)c1ccc(OC[C@H]2C[C@H](NC(=O)[C@@]3(F)CNC4(CCC4)C3)C2)c(-c2cccc(F)c2C2CCC2)c1 (single isomer, unassigned) [Example G5, (7Rξ)-N-{(1r,3r)-3-[({2′-cyclobutyl-5-[1-(ethanesulfonamido)-2-methyl-1-oxopropan-2-yl]-3′-fluoro[1,1′-biphenyl]-2-yl}oxy)methyl]cyclobutyl}-7-fluoro-5-azaspiro[3.4]octane-7-carboxamide]
25 | 18.6 | 0.3 |  |  | 23.6 |  | C[C@@H](C(=O)O)c1nn(C)cc1-c1ccc(O[C@@H]2CC[C@@H](NC(=O)[C@]3(F)CNC4(CCC4)C3)C2)c(-c2cccc(F)c2C2CCC2)c1 (single isomer, unassigned) [Example J4]
26 |  | 0.19 |  | 2.76 | 21.5 |  | C[C@H](C(=O)O)c1nn(C)cc1-c1ccc(O[C@@H]2CC[C@@H](NC(=O)[C@]3(F)CNC4(CCC4)C3)C2)c(-c2cccc(F)c2C2CCC2)c1 (single isomer, unassigned) [Example J5]
27 | 4.97 | 0.08 |  |  | 34.2 |  | CC(C)n1cc(-c2ccc(O[C@@H]3CC[C@@H](NC(=O)[C@@]4(F)CNC5(CCC5)C4)C3)c(-c3cccc(F)c3C3CCC3)c2)c(C(=O)O)n1 (single isomer, unassigned) [Example J16]
28 |  | 0.21 |  | 6.9 | 43.4 |  | Cc1cc(NS(C)(=O)=O)n(-c2ccc(O[C@@H]3CC[C@@H](NC(=O)[C@@]4(F)CNC5(CCC5)C4)C3)c(-c3cccc(F)c3C3CCC3)c2)n1 (single isomer, unassigned) [Example L3]
